Data published in PubChem BioAssay AID1963966 (Molecular Pharmacology Branch, DTP, NCI, 2024).

System: 935938-334-R-J1-PDC spheroids with HUVEC/MSC, viability
Test: Anticancer human tumor 935938-334-R-J1-PDC patient-derived small intestine adenocarcinoma cell line growth inhibition [PI3K]
Conditions: for IC50: curve of first compound; for viability, T/C: stronger effect = lower value
Summary of the method: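 Combination activity was assessed by viability in multicellular tumor spheroids carrying HUVEC and MSC components. Agents were tested with PI3K inhibitors from a Cmax-based top dose (or 10 microM) downward in half-log increments.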

[1] = second compound 0.0316 µM, first compound 0.0316 µM
[2] = second compound 0.0316 µM, first compound 0.1 µM
[3] = second compound 0.0316 µM, first compound 0.316 µM
[4] = second compound 0.0316 µM, first compound 1 µM
[5] = second compound 0.0316 µM, first compound 3.16 µM
[6] = second compound 0.0316 µM, first compound 10 µM
[7] = second compound 0.1 µM, first compound 0.0316 µM
[8] = second compound 0.1 µM, first compound 0.1 µM
[9] = second compound 0.1 µM, first compound 0.316 µM
[10] = second compound 0.1 µM, first compound 1 µM
[11] = second compound 0.1 µM, first compound 3.16 µM
[12] = second compound 0.1 µM, first compound 10 µM
[13] = second compound 0.316 µM, first compound 0.0316 µM
[14] = second compound 0.316 µM, first compound 0.1 µM
[15] = second compound 0.316 µM, first compound 0.316 µM
[16] = second compound 0.316 µM, first compound 1 µM
[17] = second compound 0.316 µM, first compound 3.16 µM
[18] = second compound 0.316 µM, first compound 10 µM
[19] = second compound 1 µM, first compound 0.0316 µM
[20] = second compound 1 µM, first compound 0.1 µM
[21] = second compound 1 µM, first compound 0.316 µM
[22] = second compound 1 µM, first compound 1 µM
[23] = second compound 1 µM, first compound 3.16 µM
[24] = second compound 1 µM, first compound 10 µM
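Note: compound exposure lasted seven days before viability was read.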
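Throughout, for viability, T/C: percent of vehicle DMSO treated spheroid viability so 100% = untreated.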

Cn1cnc2c(F)c(Nc3ccc(Br)cc3Cl)c(C(=O)NOCCO)cc21 + COc1c(OCCCN2CCOCC2)ccc2c3n(c(=NC(=O)c4cnc(N)nc4)nc12)CCN3
IC50 (second compound 0.00316 µM): 0.0609 µM | IC50 (second compound 0.01 µM): 0.0566 µM | IC50 (second compound 0.0316 µM): 0.0403 µM | IC50 (second compound 0.1 µM): < 0.00949 µM | IC50 (second compound 0.316 µM): < 0.00949 µM | IC50 (second compound 1 µM): < 0.00949 µM | viability, T/C (second compound 0.00316 µM, first compound 0.00949 µM): 70.9% | viability, T/C (second compound 0.00316 µM, first compound 0.03 µM): 55.8% | viability, T/C (second compound 0.00316 µM, first compound 0.0949 µM): 49.6% | viability, T/C (second compound 0.00316 µM, first compound 0.3 µM): 30.8% | viability, T/C (second compound 0.00316 µM, first compound 0.949 µM): 30.9% | viability, T/C (second compound 0.00316 µM, first compound 3 µM): 23.4% | viability, T/C (second compound 0.01 µM, first compound 0.00949 µM): 76.8% | viability, T/C (second compound 0.01 µM, first compound 0.03 µM): 63.6% | viability, T/C (second compound 0.01 µM, first compound 0.0949 µM): 36.4% | viability, T/C (second compound 0.01 µM, first compound 0.3 µM): 32.6% | viability, T/C (second compound 0.01 µM, first compound 0.949 µM): 22.6% | viability, T/C (second compound 0.01 µM, first compound 3 µM): 18.4% | viability, T/C (second compound 0.0316 µM, first compound 0.00949 µM): 64.5% | viability, T/C (second compound 0.0316 µM, first compound 0.03 µM): 51.7% | viability, T/C (second compound 0.0316 µM, first compound 0.0949 µM): 42.4% | viability, T/C (second compound 0.0316 µM, first compound 0.3 µM): 27% | viability, T/C (second compound 0.0316 µM, first compound 0.949 µM): 22.2% | viability, T/C (second compound 0.0316 µM, first compound 3 µM): 20.3% | viability, T/C (second compound 0.1 µM, first compound 0.00949 µM): 31.4% | viability, T/C (second compound 0.1 µM, first compound 0.03 µM): 29.9% | viability, T/C (second compound 0.1 µM, first compound 0.0949 µM): 20.9% | viability, T/C (second compound 0.1 µM, first compound 0.3 µM): 16.2% | viability, T/C (second compound 0.1 µM, first compound 0.949 µM): 17.3% | viability, T/C (second compound 0.1 µM, first compound 3 µM): 14.1% | viability, T/C (second compound 0.316 µM, first compound 0.00949 µM): 26.8% | viability, T/C (second compound 0.316 µM, first compound 0.03 µM): 21.4% | viability, T/C (second compound 0.316 µM, first compound 0.0949 µM): 19.4% | viability, T/C (second compound 0.316 µM, first compound 0.3 µM): 17.7% | viability, T/C (second compound 0.316 µM, first compound 0.949 µM): 18.9% | viability, T/C (second compound 0.316 µM, first compound 3 µM): 15% | viability, T/C (second compound 1 µM, first compound 0.00949 µM): 29% | viability, T/C (second compound 1 µM, first compound 0.03 µM): 24.4% | viability, T/C (second compound 1 µM, first compound 0.0949 µM): 21.4% | viability, T/C (second compound 1 µM, first compound 0.3 µM): 21.3% | viability, T/C (second compound 1 µM, first compound 0.949 µM): 17.9% | viability, T/C (second compound 1 µM, first compound 3 µM): 14%

CNC(=O)c1ccc(N2C(=S)N(c3ccc(C#N)c(C(F)(F)F)c3)C(=O)C2(C)C)cc1F + Cc1nc(NC(=O)N2CCCC2C(N)=O)sc1-c1ccnc(C(C)(C)C(F)(F)F)c1
IC50 (second compound 0.0316 µM): > 10 µM | IC50 (second compound 0.1 µM): > 10 µM | IC50 (second compound 0.316 µM): > 10 µM | IC50 (second compound 1 µM): > 10 µM | IC50 (second compound 3.16 µM): < 0.0316 µM | IC50 (second compound 10 µM): 0.162 µM | viability, T/C [1]: 111% | viability, T/C [2]: 84.3% | viability, T/C [3]: 84.9% | viability, T/C [4]: 91.9% | viability, T/C [5]: 100% | viability, T/C [6]: 88% | viability, T/C [7]: 81.7% | viability, T/C [8]: 88.7% | viability, T/C [9]: 65.5% | viability, T/C [10]: 84.4% | viability, T/C [11]: 76.8% | viability, T/C [12]: 62.9% | viability, T/C [13]: 103% | viability, T/C [14]: 59.7% | viability, T/C [15]: 81.9% | viability, T/C [16]: 69.6% | viability, T/C [17]: 77% | viability, T/C [18]: 56.7% | viability, T/C [19]: 75.2% | viability, T/C [20]: 76.8% | viability, T/C [21]: 70.2% | viability, T/C [22]: 101% | viability, T/C [23]: 56.2% | viability, T/C [24]: 70.7% | viability, T/C (second compound 3.16 µM, first compound 0.0316 µM): 39.6% | viability, T/C (second compound 3.16 µM, first compound 0.1 µM): 43.9% | viability, T/C (second compound 3.16 µM, first compound 0.316 µM): 51% | viability, T/C (second compound 3.16 µM, first compound 1 µM): 51.5% | viability, T/C (second compound 3.16 µM, first compound 3.16 µM): 47% | viability, T/C (second compound 3.16 µM, first compound 10 µM): 47.3% | viability, T/C (second compound 10 µM, first compound 0.0316 µM): 45.6% | viability, T/C (second compound 10 µM, first compound 0.1 µM): 59.7% | viability, T/C (second compound 10 µM, first compound 0.316 µM): 46.2% | viability, T/C (second compound 10 µM, first compound 1 µM): 39.3% | viability, T/C (second compound 10 µM, first compound 3.16 µM): 38.5% | viability, T/C (second compound 10 µM, first compound 10 µM): 34.3%

Cn1nccc1Nc1nccc(-c2ccn(C(CO)c3ccc(Cl)c(F)c3)c(=O)c2)n1 (stereo unspecified) + CC(Nc1ccc2c(c1)OCCn1cc(N3C(=O)OCC3C(F)F)nc1-2)C(N)=O
IC50 (second compound 0.00316 µM): 1.4 µM | IC50 (second compound 0.01 µM): 0.835 µM | IC50 (second compound 0.0316 µM): 1.43 µM | IC50 (second compound 0.1 µM): 0.777 µM | IC50 (second compound 0.316 µM): 0.505 µM | IC50 (second compound 1 µM): 0.147 µM | viability, T/C (second compound 0.00316 µM, first compound 0.0316 µM): 101% | viability, T/C (second compound 0.00316 µM, first compound 0.1 µM): 92.6% | viability, T/C (second compound 0.00316 µM, first compound 0.316 µM): 70.6% | viability, T/C (second compound 0.00316 µM, first compound 1 µM): 57.2% | viability, T/C (second compound 0.00316 µM, first compound 3.16 µM): 37.5% | viability, T/C (second compound 0.00316 µM, first compound 10 µM): 37% | viability, T/C (second compound 0.01 µM, first compound 0.0316 µM): 99.9% | viability, T/C (second compound 0.01 µM, first compound 0.1 µM): 82.1% | viability, T/C (second compound 0.01 µM, first compound 0.316 µM): 73.8% | viability, T/C (second compound 0.01 µM, first compound 1 µM): 41.4% | viability, T/C (second compound 0.01 µM, first compound 3.16 µM): 38.9% | viability, T/C (second compound 0.01 µM, first compound 10 µM): 33.7% | viability, T/C [1]: 108% | viability, T/C [2]: 81.9% | viability, T/C [3]: 66% | viability, T/C [4]: 59.5% | viability, T/C [5]: 38.8% | viability, T/C [6]: 31.4% | viability, T/C [7]: 87.6% | viability, T/C [8]: 71.7% | viability, T/C [9]: 63.8% | viability, T/C [10]: 48.6% | viability, T/C [11]: 30.3% | viability, T/C [12]: 25.8% | viability, T/C [13]: 86.5% | viability, T/C [14]: 71.2% | viability, T/C [15]: 53% | viability, T/C [16]: 44.7% | viability, T/C [17]: 29.7% | viability, T/C [18]: 21.6% | viability, T/C [19]: 70.3% | viability, T/C [20]: 55.1% | viability, T/C [21]: 39.5% | viability, T/C [22]: 30.1% | viability, T/C [23]: 23.2% | viability, T/C [24]: 23.4%
